Data taken from the NIST ThermoML archive (doi:10.1016/j.fluid.2008.03.012).

Assay: excess molar enthalpy (molar enthalpy of mixing); xn = mol fraction of the nth substance listed
Conditions: Liquid, Flow calorimetry

CCOC(=O)CC(C)=O [ethyl 3-oxobutanoate] + CCO
excess molar enthalpy [kcal/mol]
Conditions	298.15 K	313.15 K	328.15 K
100 kPa, x1 = 0.0999	0.178	0.202	0.217
100 kPa, x1 = 0.1997	0.286	0.326	0.359
100 kPa, x1 = 0.2994	0.357	0.403	0.445
100 kPa, x1 = 0.3495	0.38	0.43	0.473
100 kPa, x1 = 0.3999	0.396	0.448	0.493
100 kPa, x1 = 0.4501	0.406	0.457	0.502
100 kPa, x1 = 0.4995	0.408	0.459	0.502
100 kPa, x1 = 0.5492	0.405	0.455	0.494
100 kPa, x1 = 0.6008	0.395	0.439	0.476
100 kPa, x1 = 0.6501	0.377	0.418	0.45
100 kPa, x1 = 0.7008	0.353	0.388	0.415
100 kPa, x1 = 0.8006	0.275	0.296	0.313
100 kPa, x1 = 0.9002	0.157	0.168	0.17
10000 kPa, x1 = 0.0998	0.173	0.202	0.215
10000 kPa, x1 = 0.1995	0.281	0.325	0.351
10000 kPa, x1 = 0.2992	0.349	0.402	0.436
10000 kPa, x1 = 0.3493	0.371	0.429	0.463
10000 kPa, x1 = 0.3996	0.387	0.447	0.481
10000 kPa, x1 = 0.4498	0.396	0.455	0.489
10000 kPa, x1 = 0.4992	0.399	0.458	0.489
10000 kPa, x1 = 0.5489	0.396	0.453	0.481
10000 kPa, x1 = 0.6005	0.385	0.438	0.464
10000 kPa, x1 = 0.6499	0.368	0.417	0.437
10000 kPa, x1 = 0.7005	0.343	0.387	0.403
10000 kPa, x1 = 0.8004	0.268	0.295	0.302
10000 kPa, x1 = 0.9001	0.15	0.167	0.168

CCOC(=O)CC(C)=O [ethyl 3-oxobutanoate] + CO
excess molar enthalpy [kcal/mol]
Conditions	298.15 K	313.15 K	328.15 K
100 kPa, x1 = 0.0998	0.12	0.135	0.146
100 kPa, x1 = 0.2002	0.202	0.227	0.244
100 kPa, x1 = 0.2994	0.256	0.285	0.309
100 kPa, x1 = 0.3505	0.274	0.305	0.332
100 kPa, x1 = 0.3995	0.287	0.318	0.346
100 kPa, x1 = 0.4495	0.295	0.326	0.354
100 kPa, x1 = 0.4998	0.298	0.33	0.357
100 kPa, x1 = 0.5495	0.296	0.326	0.352
100 kPa, x1 = 0.5997	0.288	0.318	0.341
100 kPa, x1 = 0.65	0.275	0.304	0.323
100 kPa, x1 = 0.6995	0.257	0.279	0.299
100 kPa, x1 = 0.7994	0.199	0.211	0.224
100 kPa, x1 = 0.8982	0.111	0.115	0.12
10000 kPa, x1 = 0.0996	0.116	0.133	0.145
10000 kPa, x1 = 0.1999	0.197	0.225	0.244
10000 kPa, x1 = 0.299	0.248	0.283	0.309
10000 kPa, x1 = 0.35	0.265	0.303	0.331
10000 kPa, x1 = 0.399	0.276	0.317	0.346
10000 kPa, x1 = 0.449	0.283	0.325	0.354
10000 kPa, x1 = 0.4993	0.286	0.329	0.356
10000 kPa, x1 = 0.5489	0.283	0.324	0.352
10000 kPa, x1 = 0.5992	0.274	0.317	0.341
10000 kPa, x1 = 0.6495	0.261	0.301	0.322
10000 kPa, x1 = 0.699	0.242	0.273	0.297
10000 kPa, x1 = 0.799	0.182	0.209	0.222
10000 kPa, x1 = 0.898	0.0986	0.113	0.118
